Tested on: HBV viral load (viral production from HepAD38 cells)
Test: Activity of test compounds on viral production from HepAD38 cells (viral load by qPCR of HBV core sequence)
Type: cell-based
Details: Hepatitis B virus, HePAD38, 120 h, viral load lowering, 5 days, qPCR of supernatant, read-out: VL HepAD38 EC50 range
Summary of the method: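 HepAD38 cells seeded at 50,000/well in tetracycline-free medium with 2% FBS, treated 5 days at 37 °C with compounds from 10 μM top concentration. Supernatant HBV DNA quantified by TaqMan qPCR of core sequence against HBV DNA standards, relative to DMSO wells; viability by CellTiter-Glo; EC50/CC50 by four-parameter logistic fit.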

| Compound | EC50 [nM] |
| --- | --- |
| Cn1nc(C(F)(F)F)cc1C1(O)CC2CC(c3nc(Cl)n(C)c3C(=O)Nc3ccc(F)c(Cl)c3)CC2C1 (stereo not shown) [Example 111, 2-Chloro-N-(3-chloro-4-fluorophenyl)-4-(5-hydroxy-5-(1-methyl-3-(trifluoromethyl)-1H-pyrazol-5-yl)octahydropentalen-2-yl)-1-methyl-1H-imidazole-5-carboxamide] | 10 to 50 |
| CC(N)c1cc(C2(O)CC3CC(c4ncn(C)c4C(=O)Nc4ccc(F)c(Cl)c4)CC3C2)n(C)n1 (stereo not shown) [Example 112, 4-(5-(3-(1-Aminoethyl)-1-methyl-1H-pyrazol-5-yl)-5-hydroxyoctahydropentalen-2-yl)-N-(3-chloro-4-fluorophenyl)-1-methyl-1H-imidazole-5-carboxamide] | 10 to 50 |
| CCCCC1(O)CC2CC(c3nc(Cl)n(C)c3C(=O)Nc3ccc(F)c(Cl)c3)CC2C1 (stereo not shown) [Example 113, 4-(5-Butyl-5-hydroxyoctahydropentalen-2-yl)-2-chloro-N-(3-chloro-4-fluorophenyl)-1-methyl-1H-imidazole-5-carboxamide] | < 10 |
| Cn1cc(C2(O)CC3CC(c4ncn(C)c4C(=O)Nc4ccc(F)c(C#N)c4)CC3C2)c(C(F)(F)F)n1 (stereo not shown) [Example 115, N-(3-Cyano-4-fluorophenyl)-4-(5-hydroxy-5-(1-methyl-3-(trifluoromethyl)-1H-pyrazol-4-yl)octahydropentalen-2-yl)-1-methyl-1H-imidazole-5-carboxamide] | < 10 |
| Cn1cnc(C2CC3CC(O)(c4cc[nH]n4)CC3C2)c1C(=O)Nc1ccc(F)c(Cl)c1 (stereo not shown) [Example 116, N-(3-chloro-4-fluorophenyl)-4-(5-hydroxy-5-(1H-pyrazol-3-yl)octahydropentalen-2-yl)-1-methyl-1H-imidazole-5-carboxamide] | < 10 |
| Cn1cc(Br)c(C2(O)CC3CC(c4ncn(C)c4C(=O)Nc4ccc(F)c(Cl)c4)CC3C2)n1 (stereo not shown) [Example 117, 4-(5-(4-bromo-1-methyl-1H-pyrazol-3-yl)-5-hydroxyoctahydropentalen-2-yl)-N-(3-chloro-4-fluorophenyl)-1-methyl-1H-imidazole-5-carboxamide] | < 10 |
| Cn1ccc(C2(O)CC3CC(c4ncn(C)c4C(=O)Nc4ccc(F)c(Cl)c4)CC3C2)n1 (stereo not shown) [Example 118, N-(3-chloro-4-fluorophenyl)-4-(5-hydroxy-5-(1-methyl-1H-pyrazol-3-yl)octahydropentalen-2-yl)-1-methyl-1H-imidazole-5-carboxamide] | < 10 |
| CCn1nccc1C1(O)CC2CC(c3ncn(C)c3C(=O)Nc3ccc(F)c(Cl)c3)CC2C1 (stereo not shown) [Example 119, N-(3-chloro-4-fluorophenyl)-4-(5-(1-ethyl-1H-pyrazol-5-yl)-5-hydroxyoctahydropentalen-2-yl)-1-methyl-1H-imidazole-5-carboxamide] | < 10 |
| CC(C)n1nccc1C1(O)CC2CC(c3ncn(C)c3C(=O)Nc3ccc(F)c(Cl)c3)CC2C1 (stereo not shown) [Example 120, N-(3-chloro-4-fluorophenyl)-4-(5-hydroxy-5-(1-isopropyl-1H-pyrazol-5-yl)octahydropentalen-2-yl)-1-methyl-1H-imidazole-5-carboxamide] | < 10 |
| Cn1cc(C2(O)CC3CC(c4ncn(C)c4C(=O)Nc4ccc(F)c(Cl)c4)CC3C2)cn1 (stereo not shown) [Example 121, N-(3-chloro-4-fluorophenyl)-4-(5-hydroxy-5-(1-methyl-1H-pyrazol-4-yl)octahydropentalen-2-yl)-1-methyl-1H-imidazole-5-carboxamide] | < 10 |
| Cn1cnc(C2CC3CC(O)(c4c(Cl)cnn4C)CC3C2)c1C(=O)Nc1ccc(F)c(Cl)c1 (stereo not shown) [Example 122, 4-(5-(4-chloro-1-methyl-1H-pyrazol-5-yl)-5-hydroxyoctahydro-pentalen-2-yl)-N-(3-chloro-4-fluorophenyl)-1-methyl-1H-imidazole-5-carboxamide] | < 10 |
| Cn1cnc(C2CC3CC(O)(Cc4c(Br)cnn4C)CC3C2)c1C(=O)Nc1ccc(F)c(Cl)c1 (stereo not shown) [Example 123, 4-(5-((4-bromo-1-methyl-1H-pyrazol-5-yl)methyl)-5-hydroxyoctahydropentalen-2-yl)-N-(3-chloro-4-fluorophenyl)-1-methyl-1H-imidazole-5-carboxamide] | < 10 |
| Cn1cnc(C2CC3CC(O)(c4c(F)cnn4C)CC3C2)c1C(=O)Nc1ccc(F)c(Cl)c1 (stereo not shown) [Example 124, N-(3-chloro-4-fluorophenyl)-4-(5-(4-fluoro-1-methyl-1H-pyrazol-5-yl)-5-hydroxyoctahydropentalen-2-yl)-1-methyl-1H-imidazole-5-carboxamide] | < 10 |
| Cn1cnc(C2CC3CC(O)(c4c(C#N)cnn4C)CC3C2)c1C(=O)Nc1ccc(F)c(Cl)c1 (stereo not shown) [Example 125, N-(3-chloro-4-fluorophenyl)-4-(5-(4-cyano-1-methyl-1H-pyrazol-5-yl)-5-hydroxyoctahydropentalen-2-yl)-1-methyl-1H-imidazole-5-carboxamide] | < 10 |
| Cn1cnc(C2CC3CC(O)(c4c(C(N)=O)cnn4C)CC3C2)c1C(=O)Nc1ccc(F)c(Cl)c1 (stereo not shown) [Example 126, 5-(5-(5-((3-chloro-4-fluorophenyl)carbamoyl)-1-methyl-1H-imidazol-4-yl)-2-hydroxyoctahydropentalen-2-yl)-1-methyl-1H-pyrazole-4-carboxamide] | < 10 |
| Cn1cnc(C2CC3CC(O)(c4c([N+](=O)[O-])cnn4C)CC3C2)c1C(=O)Nc1ccc(F)c(Cl)c1 (stereo not shown) [Example 127, N-(3-chloro-4-fluorophenyl)-4-(5-hydroxy-5-(1-methyl-4-nitro-1H-pyrazol-5-yl)octahydropentalen-2-yl)-1-methyl-1H-imidazole-5-carboxamide] | 10 to 50 |
| Cn1cc(CC2(O)CC3CC(c4ncn(C)c4C(=O)Nc4ccc(F)c(Cl)c4)CC3C2)cn1 (stereo not shown) [Example 130, N-(3-chloro-4-fluorophenyl)-4-(5-hydroxy-5-((1-methyl-1H-pyrazol-4-yl)methyl)octahydropentalen-2-yl)-1-methyl-1H-imidazole-5-carboxamide] | < 10 |
| Cc1cnn(C)c1C1(O)CC2CC(c3ncn(C)c3C(=O)Nc3ccc(F)c(Cl)c3)CC2C1 (stereo not shown) [Example 131, N-(3-chloro-4-fluorophenyl)-4-(5-(1,4-dimethyl-1H-pyrazol-5-yl)-5-hydroxyoctahydropentalen-2-yl)-1-methyl-1H-imidazole-5-carboxamide] | < 10 |
| Cn1cc(C2(O)CC3CC(c4ncn(C)c4C(=O)Nc4ccc(F)c(Cl)c4)CC3C2)c(C(F)F)n1 (stereo not shown) [Example 132, N-(3-chloro-4-fluorophenyl)-4-(5-(3-(difluoromethyl)-1-methyl-1H-pyrazol-4-yl)-5-hydroxyoctahydropentalen-2-yl)-1-methyl-1H-imidazole-5-carboxamide] | < 10 |
| Cn1cnc(C2CC3CC(O)(c4cc(C(F)F)nn4C)CC3C2)c1C(=O)Nc1ccc(F)c(Cl)c1 (stereo not shown) [Example 133, N-(3-chloro-4-fluorophenyl)-4-(5-(3-(difluoromethyl)-1-methyl-1H-pyrazol-5-yl)-5-hydroxyoctahydropentalen-2-yl)-1-methyl-1H-imidazole-5-carboxamide] | < 10 |
| COc1cnn(C)c1C1(O)CC2CC(c3ncn(C)c3C(=O)Nc3ccc(F)c(Cl)c3)CC2C1 (stereo not shown) [Example 134, N-(3-chloro-4-fluorophenyl)-4-(5-hydroxy-5-(4-methoxy-1-methyl-1H-pyrazol-5-yl)octahydropentalen-2-yl)-1-methyl-1H-imidazole-5-carboxamide] | < 10 |
| Cc1cn[nH]c1C1(O)CC2CC(c3ncn(C)c3C(=O)Nc3ccc(F)c(Cl)c3)CC2C1 (stereo not shown) [Example 135, N-(3-chloro-4-fluorophenyl)-4-(5-hydroxy-5-(4-methyl-1H-pyrazol-5-yl)octahydropentalen-2-yl)-1-methyl-1H-imidazole-5-carboxamide] | < 10 |
| Cn1cc(F)c(C2(O)CC3CC(c4ncn(C)c4C(=O)Nc4ccc(F)c(Cl)c4)CC3C2)n1 (stereo not shown) [Example 136, N-(3-chloro-4-fluorophenyl)-4-(5-(4-fluoro-1-methyl-1H-pyrazol-3-yl)-5-hydroxyoctahydropentalen-2-yl)-1-methyl-1H-imidazole-5-carboxamide] | < 10 |
| [2H]C([2H])([2H])n1nccc1C1(O)CC2CC(c3ncn(C)c3C(=O)Nc3ccc(F)c(Cl)c3)CC2C1 (stereo not shown) [Example 137, N-(3-chloro-4-fluorophenyl)-4-(5-hydroxy-5-(1-(methyl-d3)-1H-pyrazol-5-yl)octahydropentalen-2-yl)-1-methyl-1H-imidazole-5-carboxamide] | < 10 |
| Cc1nc(C2CC3CC(O)(c4c(Cl)cnn4C)CC3C2)c(C(=O)Nc2ccc(F)c(Cl)c2)n1C (stereo not shown) [Example 138, 4-(5-(4-Chloro-1-methyl-1H-pyrazol-5-yl)-5-hydroxyoctahydropentalen-2-yl)-N-(3-chloro-4-fluorophenyl)-1,2-dimethyl-1H-imidazole-5-carboxamide] | < 10 |
| Cn1cc(Cl)c(C2(O)CC3CC(c4ncn(C)c4C(=O)Nc4ccc(F)c(Cl)c4)CC3C2)n1 (stereo not shown) [Example 139, 4-(5-(4-Chloro-1-methyl-1H-pyrazol-3-yl)-5-hydroxyoctahydropentalen-2-yl)-N-(3-chloro-4-fluorophenyl)-1-methyl-1H-imidazole-5-carboxamide] | < 10 |
| Cc1nc(C2CC3CC(O)(c4ccnn4C(C)C)CC3C2)c(C(=O)Nc2ccc(F)c(Cl)c2)n1C (stereo not shown) [Example 140, N-(3-Chloro-4-fluorophenyl)-4-(5-hydroxy-5-(1-isopropyl-1H-pyrazol-5-yl)octahydropentalen-2-yl)-1,2-dimethyl-1H-imidazole-5-carboxamide] | < 10 |
| Cn1cnc(C2CC3CC(O)(c4cnn(C)c4C(F)(F)F)CC3C2)c1C(=O)Nc1ccc(F)c(Cl)c1 (stereo not shown) [Example 141, N-(3-Chloro-4-fluorophenyl)-4-(5-hydroxy-5-(1-methyl-5-(trifluoromethyl)-1H-pyrazol-4-yl)octahydropentalen-2-yl)-1-methyl-1H-imidazole-5-carboxamide] | < 10 |
